Results published in ChEMBL document CHEMBL1201862, “PubChem BioAssay data set” (2004).
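1) Cells in 96-well plates. 2) Compound, 48 h, 5 concentrations. 3) Linear interpolation between surrounding doses. 4) Unreached endpoint = highest concentration. GI50 marks 50% less growth.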 Active and inactive are the calls of the source. No stated cut-off is given here; in the data, active = GI50 up to about 1.1 µM and inactive = higher.

Tests used:
Assay in all cases: NCI tumour cell line growth inhibition, 48 h
786-0 = test system: 786-0
A498 = test system: A498
A549 = test system: A549
ACHN = test system: ACHN
CAKI-1 = test system: CAKI-1
CCRF-CEM = test system: CCRF-CEM
COLO 205 = test system: COLO 205
DU-145 = test system: DU-145
EKVX = test system: EKVX
HCC 2998 = test system: HCC 2998
HCT-116 = test system: HCT-116
HCT-15 = test system: HCT-15
HL-60 = test system: HL-60
HOP-62 = test system: HOP-62
HOP-92 = test system: HOP-92
HT-29 = test system: HT-29
Hs-578T = test system: Hs-578T
IGROV-1 = test system: IGROV-1
K562 = test system: K562
KM12 = test system: KM12
LOX IMVI = test system: LOX IMVI
M14 = test system: M14
MCF7 = test system: MCF7
MDA-MB-231 = test system: MDA-MB-231
MDA-MB-435 = test system: MDA-MB-435
MDA-N = test system: MDA-N
MOLT-4 = test system: MOLT-4
Malme-3M = test system: Malme-3M
NCI-H226 = test system: NCI-H226
NCI-H23 = test system: NCI-H23
NCI-H460 = test system: NCI-H460
NCI-H522 = test system: NCI-H522
NCI/ADR-RES = test system: NCI/ADR-RES
OVCAR-3 = test system: OVCAR-3
OVCAR-4 = test system: OVCAR-4
OVCAR-5 = test system: OVCAR-5
OVCAR-8 = test system: OVCAR-8
PC-3 = test system: PC-3
RPMI-8226 = test system: RPMI-8226
RXF 393 = test system: RXF 393
SF-268 = test system: SF-268
SF-295 = test system: SF-295
SF-539 = test system: SF-539
SK-MEL-28 = test system: SK-MEL-28
SK-MEL-2 = test system: SK-MEL-2
SK-MEL-5 = test system: SK-MEL-5
SK-OV-3 = test system: SK-OV-3
SN12C = test system: SN12C
SNB-19 = test system: SNB-19
SNB-75 = test system: SNB-75
SR = test system: SR
SW-620 = test system: SW-620
T47D = test system: T47D
TK-10 = test system: TK-10
U-251 = test system: U-251
UACC-257 = test system: UACC-257
UACC-62 = test system: UACC-62
UO-31 = test system: UO-31

In the case of N#Cc1nc(C(F)(F)F)oc1N, the GI50 (786-0) is reported as > 100 µM (inactive), the GI50 (A498) is reported as > 100 µM (inactive) and the GI50 (A549) is reported as > 100 µM (inactive). The GI50 (ACHN) was > 100 µM (inactive), the GI50 (CAKI-1) was > 100 µM (inactive) and the GI50 (CCRF-CEM) was 95.3 µM (inactive). For the same molecule, the GI50 (COLO 205) was > 100 µM (inactive), the GI50 (DU-145) was > 100 µM (inactive) and the GI50 (EKVX) was > 100 µM (inactive). The GI50 (HCC 2998) was > 100 µM (inactive), the GI50 (HCT-116) was > 100 µM (inactive) and the GI50 (HCT-15) was greater than 100 µM. For the same molecule, the GI50 (HL-60) was > 100 µM (inactive), the GI50 (HOP-62) was > 100 µM (inactive) and the GI50 (HOP-92) was > 100 µM (inactive). The GI50 (HT-29) was > 100 µM (inactive), the GI50 (Hs-578T) was > 100 µM (inactive) and the GI50 (IGROV-1) was > 100 µM (inactive). The GI50 (K562) was > 100 µM (inactive), the GI50 (KM12) was > 100 µM (inactive) and the GI50 (LOX IMVI) was > 100 µM (inactive). For the same molecule, the GI50 (M14) was > 100 µM (inactive), the GI50 (MCF7) was > 100 µM (inactive) and the GI50 (MDA-MB-231) was > 100 µM (inactive). For the same molecule, the GI50 (MDA-MB-435) was > 100 µM (inactive), the GI50 (MDA-N) was > 100 µM (inactive) and the GI50 (MOLT-4) was > 100 µM (inactive). For the same molecule, the GI50 (Malme-3M) was > 100 µM (inactive), the GI50 (NCI-H226) was > 100 µM (inactive) and the GI50 (NCI-H23) was > 100 µM (inactive). The GI50 (NCI-H460) was > 100 µM (inactive), the GI50 (NCI-H522) was 66.1 µM (inactive) and the GI50 (NCI/ADR-RES) was > 100 µM (inactive). The GI50 (OVCAR-3) was > 100 µM (inactive), the GI50 (OVCAR-4) was > 100 µM (inactive) and the GI50 (OVCAR-5) was > 100 µM (inactive). For the same molecule, the GI50 (OVCAR-8) was > 100 µM (inactive), the GI50 (PC-3) was > 100 µM (inactive) and the GI50 (RPMI-8226) was > 100 µM (inactive). The GI50 (RXF 393) was > 100 µM (inactive), the GI50 (SF-268) was > 100 µM (inactive) and the GI50 (SF-295) was > 100 µM (inactive). For the same molecule, the GI50 (SF-539) was > 100 µM (inactive), the GI50 (SK-MEL-28) was > 100 µM (inactive) and the GI50 (SK-MEL-2) was > 100 µM (inactive). For the same molecule, the GI50 (SK-MEL-5) was > 100 µM (inactive), the GI50 (SK-OV-3) was > 100 µM (inactive) and the GI50 (SN12C) was > 100 µM (inactive). For the same molecule, the GI50 (SNB-19) was > 100 µM (inactive), the GI50 (SNB-75) was > 100 µM (inactive) and the GI50 (SR) was > 100 µM (inactive). For the same molecule, the GI50 (SW-620) was > 100 µM (inactive), the GI50 (T47D) was > 100 µM (inactive) and the GI50 (TK-10) was > 100 µM (inactive). For the same molecule, the GI50 (U-251) was > 100 µM (inactive), the GI50 (UACC-257) was > 100 µM (inactive) and the GI50 (UACC-62) was > 100 µM (inactive). For the same molecule, the GI50 (UO-31) was > 100 µM (inactive).

CCOC(=O)[C@@]12C[C@](/C=C/OC)(O[Si](C)(C)C)[C@@]13c1cc(OC)c(OC)cc1CCN3C(=O)C2O (stereo partly drawn) was tested, and the GI50 (786-0) was > 100 µM (inactive), the GI50 (A498) was > 100 µM (inactive) and the GI50 (A549) was > 100 µM (inactive). The GI50 (ACHN) was > 100 µM (inactive), the GI50 (CAKI-1) was > 100 µM (inactive) and the GI50 (CCRF-CEM) was > 100 µM (inactive). For the same molecule, the GI50 (COLO 205) was > 100 µM (inactive), the GI50 (DU-145) was > 100 µM (inactive) and the GI50 (EKVX) was > 100 µM (inactive). The GI50 (HCT-116) was > 100 µM (inactive), the GI50 (HCT-15) was greater than 100 µM and the GI50 (HOP-62) was > 100 µM (inactive). The GI50 (HOP-92) was > 100 µM (inactive), the GI50 (HT-29) was > 100 µM (inactive) and the GI50 (Hs-578T) was 5.98 µM (inactive). For the same molecule, the GI50 (IGROV-1) was > 100 µM (inactive), the GI50 (K562) was > 100 µM (inactive) and the GI50 (KM12) was > 100 µM (inactive). For the same molecule, the GI50 (LOX IMVI) was > 100 µM (inactive), the GI50 (M14) was > 100 µM (inactive) and the GI50 (MCF7) was > 100 µM (inactive). For the same molecule, the GI50 (MDA-MB-231) was > 100 µM (inactive), the GI50 (MDA-MB-435) was > 100 µM (inactive) and the GI50 (MDA-N) was > 100 µM (inactive). For the same molecule, the GI50 (MOLT-4) was > 100 µM (inactive), the GI50 (Malme-3M) was > 100 µM (inactive) and the GI50 (NCI-H226) was > 100 µM (inactive). For the same molecule, the GI50 (NCI-H23) was > 100 µM (inactive), the GI50 (NCI-H460) was > 100 µM (inactive) and the GI50 (NCI/ADR-RES) was > 100 µM (inactive). For the same molecule, the GI50 (OVCAR-3) was > 100 µM (inactive), the GI50 (OVCAR-4) was > 100 µM (inactive) and the GI50 (OVCAR-5) was > 100 µM (inactive). The GI50 (OVCAR-8) was > 100 µM (inactive), the GI50 (PC-3) was > 100 µM (inactive) and the GI50 (RPMI-8226) was > 100 µM (inactive). The GI50 (RXF 393) was > 100 µM (inactive), the GI50 (SF-268) was > 100 µM (inactive) and the GI50 (SF-295) was > 100 µM (inactive). For the same molecule, the GI50 (SF-539) was > 100 µM (inactive), the GI50 (SK-MEL-28) was > 100 µM (inactive) and the GI50 (SK-MEL-2) was > 100 µM (inactive). The GI50 (SK-MEL-5) was 38.5 µM (inactive), the GI50 (SK-OV-3) was > 100 µM (inactive) and the GI50 (SN12C) was > 100 µM (inactive). The GI50 (SNB-19) was > 100 µM (inactive), the GI50 (SNB-75) was 47.6 µM (inactive) and the GI50 (SR) was > 100 µM (inactive). For the same molecule, the GI50 (SW-620) was > 100 µM (inactive), the GI50 (T47D) was > 100 µM (inactive) and the GI50 (TK-10) was > 100 µM (inactive). The GI50 (U-251) was > 100 µM (inactive), the GI50 (UACC-257) was > 100 µM (inactive) and the GI50 (UACC-62) was 46.9 µM (inactive). The GI50 (UO-31) was > 100 µM (inactive).
